Results published in patent publication US8354106B2, “Antibodies against HMGB1 and fragments thereof” (The Feinstein Institute for Medical Research, priority 2005, dated 2013).
Where no end group is shown, it is not given here. The star is where a group is joined. Biotin = O=C1N[C@H]2[C@H](CS[C@H]2CCCCC(=O)*)N1

How the values were obtained:
[1] = system: human immature monocyte-derived dendritic cells (DCs); assay: Cytokine/chemokine secretion by human immature monocyte-derived dendritic cells (ELISA); type: cell-based; set-up: key to TNFα secretion / IL-18 secretion / IL-8 secretion / IL-10 secretion / IL-6 secretion / IL-12 secretion: “+” indicates an increase; “−” indicates no change relative to untreated cells (medium); conditions: for secretion of IL-6 by DCs / cytokine secretion by human DCs / secretion of IL-12 (p70) / secretion of TNF-α / secretion of IL-18 / secretion of IL-8: human DCs; for secretion of IL-6 by DCs: FIGS. 1A, 1B; for secretion of IL-6 by DCs / IL-6 secretion / IL-8 secretion / IL-10 secretion / IL-12 secretion / IL-18 secretion / TNFα secretion / secretion of IL-12 (p70) / secretion of TNF-α / secretion of IL-18 / secretion of IL-8: peptides 200 μg/ml; for secretion of IL-6 by DCs / secretion of IL-12 (p70) / secretion of TNF-α / secretion of IL-18 / secretion of IL-8: 48 h; for IL-6 secretion / IL-8 secretion / IL-10 secretion / IL-12 secretion / IL-18 secretion / TNFα secretion: HUMAN DC, ELISA 48 h after exposure, relative to untreated cells; for IL-6 secretion / IL-8 secretion / IL-10 secretion / IL-12 secretion / IL-18 secretion / TNFα secretion / secretion of IL-18 / secretion of IL-8: HMGB1-Bx 50 μg/ml; for secretion of IL-12 (p70): FIG. 1C; for secretion of TNF-α: FIG. 1D; for secretion of IL-18: FIG. 1E; for secretion of IL-8: FIG. 1F
Description: Peripheral blood mononuclear cells (PBMCs) were isolated from the blood of normal volunteers (Long Island Blood Services, Melville, N.Y.) over a Ficoll-Hypaque (Amersham Biosciences, Uppsala, Sweden) density gradient. CD14^+ monocytes were isolated from PBMCs by positive selection using anti-CD14 beads (Miltenyi Biotech., Auburn, Calif.), following the manufacturer's instructions. To generate DCs, CD14^+ cells were cultured in RPMI 1640 medium supplemented with 2 mM L-glutamine (GIBCO-BRL Life Technologies, Grand Island, N.Y.), 50 μM 2-mercaptoethanol (Sigma, St. Louis, Mo.), 10 mM HEPES (GIBCO-BRL), penicillin (100 U/ml), streptomycin (100 μg/ml) (GIBCO-BRL), and 5% human AB serum (Gemini Bio-Products, Woodland, Calif.). Cultures were maintained for 7 days in 6-well trays (3×10^6 cells/well) supplemented with 1000 U GM-CSF per ml (Immunex, Seattle, Wash.) and 200 U IL-4 per ml (R&D Systems, Minneapolis, Minn.) at days 0, 2, 4 and 6.
(§1) Recombinant HMGB1-B box domain (HMGB1-Bx) was expressed in Escherichia coli and purified as described by Li, et al. (Mol. Med. 9:37-45; J. Immunol. Methods 289:211-223 (2004)). Purified HMGB1-Bx contained trace amounts of LPS (19 pg LPS/μg HMGB1-Bx) as measured by the chromogenic Limulus amebocyte lysate assay (BioWhittacker Inc, Walkersville, Md.). All experiments using HMGB1-Bx, as well as the HMGB1 peptides, were performed in the presence of polymyxin B (200 U/ml) to neutralize the amount of contaminating LPS in the HMGB1-Bx and peptide preparations. We have previously shown that the DC stimulatory capacity of HMGB1-Bx requires an intact tertiary structure and is not due to contaminating amounts of LPS, as trypsinization abolished HMGB1-Bx activity (Messmer, et al., J. Immunol. 173: 307-313 (2004); the entire teachings of which are incorporated herein by reference).
(§2) Secreted cytokine/chemokine levels were measured by ELISA (Pierce Boston Technology Center, SearchLight™ Proteome Arrays Multiplex Sample Testing Services, Woburn, Mass.) 48 h after addition of the various peptides. Polymyxin B (200 U/ml) was added to all cultures, except those containing LPS, before the stimuli were added. Immature monocyte-derived human dendritic cells (DCs) and immature bone-marrow derived murine dendritic cells (BM-DCs) were cultured either in the presence of HMGB1 peptides (200 μg/ml), whose sequences map to different regions of the HMGB1 protein (see Table 1), the entire HMGB1 B-box domain (HMGB1-Bx) (50 μg/ml), or LPS (100 ng/ml). Untreated cells (medium) were tested as a control. Each peptide was named according to the corresponding position of its first amino acid within the full-length HMGB1 sequence. All peptides were N-terminally biotinylated except “Hp-106 (non bio)”.

[2] = system: murine bone marrow-derived dendritic cells (BM-DCs); assay: Cytokine/chemokine secretion by murine bone marrow-derived dendritic cells (ELISA); type: cell-based, mouse; set-up: key to TNFα secretion / IL-18 secretion / IL-8 secretion / IL-10 secretion / IL-2 secretion / IL-1β secretion / IL-5 secretion / IL-6 secretion / IL-12 secretion: “+” indicates an increase; “−” indicates no change relative to untreated cells (medium); conditions: for secretion of IL-12 (p70): FIGS. 2B, 2H; for secretion of IL-1β: FIG. 2A; for secretion of IL-2: FIG. 2C; for secretion of IL-5: FIG. 2E
Description: Bone marrow-derived DCs (BM-DCs) were generated using modifications of the original method described by Inaba, et al. (J. Exp. Med. 1 76:1693-1702 (1992)). In brief, bone marrow suspensions were incubated with red cell lysis buffer (PUREGENE™ RBC Lysis Solution, Gentra Systems, Minneapolis, Minn.) to remove red blood cells. After washing in media, lymphocytes and Ia-positive cells were killed with a cocktail of monoclonal antibodies (mAbs) and rabbit complement for 60 min at 37° C. The mAbs that were used were GK1.5 anti-CD4, TIB211 anti-CD8, TIB 120 anti-Ia, and TIB 146 anti B220 (these mAbs were kindly provided by Dr. Ralph Steinman). The cells were subsequently cultured in media containing 5% FCS and 10 ng/ml recombinant mouse GM-CSF (R&D Systems, Minneapolis, Minn.) for 7 days. For some experiments, the cells were further purified at day 7 using CD11c^+-microbeads (Miltenyi Biotech., Auburn, Calif.), according to the manufacturer's instructions.
as §1, §2

[3] = system: allogeneic T cells co-cultured with BM-DCs; assay: Functional maturation of BM-DCs: allogeneic T cell proliferation in mixed lymphocyte reaction (3H-thymidine); type: cell-based, mouse; conditions: BM-DCs from C57/BL6 mice exposed 48 h; peptide 200 μg/ml, HMGB1-Bx 50 μg/ml; DC:T cell ratio 1:120, 5 days; FIG. 4A
Description: Immature BM-DCs that were generated from C57/BL6 mice (FIG. 4A) or Balb/c mice (FIG. 4B) were incubated for 48 h with either HMGB1-Bx (50 μg/ml), a particular HMGB1 peptide (200 μg/ml), LPS (100 ng/ml) or were left untreated (medium). T cells were isolated by negative selection using the mouse SpinSep antibody cocktail from StemCell Technologies (Vancouver, Calif.), according to the manufacturer's instructions. The cell purity of the isolated T cells was routinely ˜99% pure. In order to assess levels of T cell activation and proliferation, cells were plated at 10^5 cells per well in a round-bottomed 96-well tray at a DC:T cell ratio of 1:120 for 5 days in the medium described above. The microcultures were pulsed with (^3H)-thymidine ([…]) for the final 8 h of culture. Cell cultures were harvested onto glass fiber filters with an automated multiple sample harvester and the amount of isotope incorporation was determined by liquid scintillation β-emission. Responses are reported as mean cpm of thymidine incorporation by triplicate cultures (±SEM).

immature BM-DCs = assay: Phenotypic maturation of murine BM-DCs: surface maturation markers by FACS; type: cell-based, mouse; conditions: CD11c+ gated, mean fluorescence intensity, peptide 200 μg/ml, HMGB1-Bx 50 μg/ml
Description: In order to determine whether HMGB1-Bx and/or particular HMGB1 peptides could induce phenotypic maturation of murine DCs, immature BM-DCs were exposed to either HMGB1-Bx, a particular HMGB1 peptide, or LPS (FIG. 3). Fluorescence activated cell sorting (FACS) analysis was performed on immature DCs that were cultured in the presence of either HMGB1-Bx (50 μg/ml), an HMGB1 peptide (200 μg/ml), or LPS (100 ng/ml). Untreated DCs (medium) were also tested as a control. DCs were gated on CD11c^+ cells and analyzed for expression of specific maturation markers (e.g., CD86, MHC-II, CD40) by surface membrane immunofluorescence. In particular, 1×10^4 DCs were reacted for at least 20 min at 4° C. in […] of PBS/5% FCS/0.1% sodium azide (staining buffer) with fluorescein isothiocyanate (FITC)-conjugated IgG monoclonal antibodies (mAbs) that are specific for CD86, CD40 or MHC-II (eBioscience). Cells were then washed 4 times with staining buffer, fixed in 10% formaldehyde in PBS (pH 7.2-7.4) and examined by flow cytometry using a FACScan (BD Biosciences). In all experiments, isotype controls were included using a FITC-conjugated irrelevant mAb of the same Ig class. Results are depicted as mean fluorescence intensity (MFI).

[4] = murine BM-DCs, peptides 200 μg/ml, HMGB1-Bx 50 μg/ml, 48 h
[5] = MURINE DC, ELISA 48 h after exposure, peptides 200 μg/ml, HMGB1-Bx 50 μg/ml, relative to untreated cells

| Sequence | secretion of IL-6 by DCs [1] | secretion of IL-12 (p70) [2, 4] | IL-6 secretion [1] | IL-8 secretion [1] | IL-10 secretion [1] | IL-12 secretion [1] | IL-18 secretion [1] | TNFα secretion [1] | cytokine secretion by human DCs [1] | secretion of IL-12 (p70) [1] | secretion of TNF-α [1] | secretion of IL-18 [1] | secretion of IL-8 [1] | IL-1β secretion [2, 5] | IL-2 secretion [2, 5] | IL-5 secretion [2, 5] | IL-6 secretion [2, 5] | IL-10 secretion [2, 5] | IL-12 secretion [2, 5] | cytokine secretion by murine BM-DCs ([2]; murine BM-DCs) | also measured |
| --- | --- | --- | --- | --- | --- | --- | --- | --- | --- | --- | --- | --- | --- | --- | --- | --- | --- | --- | --- | --- | --- |
| CSEYRPKIKGEHPGLSIG [Hp-106 (non bio), Hp-106 peptide that was not biotinylated at its N-terminus] | failed to stimulate IL-6 secretion | did not enhance IL-12 secretion |  |  |  |  |  |  |  |  |  |  |  |  |  |  |  |  |  |  |  |
| HPDASVNFSEFSKKCSER (Biotin-HPDASVNFSEFSKKCSER; listed as Homo sapiens) [Hp-31] | induced secretion | enhanced the production | + | − | − | + | + | + | induced cytokine secretion by human DCs | induced secretion | induced secretion | induced secretion | did not induce secretion | + | + | + | − | − | + | induced cytokine secretion by murine BM-DCs | secretion of IL-6 ([2]; murine BM-DCs): not; secretion of IL-10 ([2]; murine BM-DCs): not; secretion of IL-1β [2, 4]: enhanced the production; secretion of IL-2 [2, 4]: enhanced the production; secretion of IL-5 [2, 4]: enhanced the production |
| SIGDVAKKLGEMWNNTAA (Biotin-SIGDVAKKLGEMWNNTAA; listed as Homo sapiens) [Hp-121, control peptide] |  |  |  |  |  |  |  |  |  |  |  |  |  |  |  |  |  |  |  |  | proliferation of resting allogeneic T cells (3H thymidine incorporation) [3]: did not show enhanced T cell stimulatory activity; CD86 expression on the surface of BM-DCs (immature BM-DCs; FIG. 3A): No altered expression; MHC-II expression on the surface of BM-DCs (immature BM-DCs; FIG. 3B): No altered expression; CD40 expression on the surface of BM-DCs (immature BM-DCs; FIG. 3C): No altered expression |
| SERWKTMSAKEKGKFEDM (Biotin-SERWKTMSAKEKGKFEDM; listed as Homo sapiens) [Hp-46] | did not induce IL-6 secretion |  |  |  |  |  |  |  |  |  |  |  |  |  |  |  |  |  |  |  | proliferation of resting allogeneic T cells (3H thymidine incorporation) [3]: did not show enhanced T cell stimulatory activity |
| DPNAPKRPPSAFFLFCSE (Biotin-DPNAPKRPPSAFFLFCSE; listed as Homo sapiens) [Hp-91] | enhanced IL-6 secretion |  | + | − | − | + | + | + | induced cytokine secretion by human DCs | induced secretion | induced secretion | induced secretion | did not induce secretion | + | + | + | − | − | + | induced cytokine secretion by murine BM-DCs | IL-8 secretion [2, 5]: −; IL-18 secretion [2, 5]: −; TNFα secretion [2, 5]: −; secretion of IL-1β [2, 4]: increased production; secretion of IL-2 [2, 4]: increased production; secretion of IL-8 ([2]; murine BM-DCs, FIG. 2D, peptides 200 μg/ml, HMGB1-Bx 50 μg/ml, 48 h): not; secretion of IL-5 [2, 4]: increased production; secretion of IL-18 ([2]; murine BM-DCs, FIG. 2F, peptides 200 μg/ml, HMGB1-Bx 50 μg/ml, 48 h): not; secretion of TNF-α ([2]; murine BM-DCs, FIG. 2G, peptides 200 μg/ml, HMGB1-Bx 50 μg/ml, 48 h): not |
